Measurements published in the NIST ThermoML archive (doi:10.1021/acs.jced.8b01095).

Legend:
[1] = Liquid; for viscosity: 2 kPa, Falling or rolling sphere viscometry; for speed of sound / mass density: 100 kPa; for speed of sound: Single path-length method; for mass density: Vibrating tube method
[2] = molar heat capacity at constant pressure; details: 100 kPa, Liquid, Extra sensitive DSC
[3] = xn = mol fraction of the nth substance listed; details: Liquid, x1 = 1; for viscosity: 2 kPa, Falling or rolling sphere viscometry; for speed of sound / mass density: 100 kPa; for speed of sound: Single path-length method; for mass density: Vibrating tube method

CCCC[n+]1ccn(C)c1.O=S(=O)([N-]S(=O)(=O)C(F)(F)F)C(F)(F)F
Details | mass density, [1] [kg/m3] | molar heat capacity at constant pressure, [2] [J/K/mol] | speed of sound, [1] [m/s] | viscosity, [1] [mPa·s]
298.15 K | 1436.62 | 567.22 | 1227.9 | 49.24
303.15 K | 1431.8 | 569.85 | 1216.8 | 40
308.15 K | 1426.98 | 572.64 | 1205.8 | 33.02
313.15 K | 1422.16 | 575.47 | 1195 | 27.66
318.15 K | 1417.34 | 578.38 | 1184.2 | 23.47
323.15 K | 1412.52 | 581.52 | 1173.6 | 20.15

CCCCn1cc[n+](C)c1.F[P-](F)(F)(F)(F)F [1-butyl-3-methylimidazolium hexafluorophosphate] + CNc1ccccc1
[3]
Details | mass density [kg/m3] | speed of sound [m/s] | viscosity [mPa·s]
298.15 K | 1367.24 | 1443.7 | 272.86
303.15 K | 1363.08 | 1431.9 | 204.1
308.15 K | 1358.91 | 1420.1 | 155.7
313.15 K | 1354.74 | 1408.5 | 120.9
318.15 K | 1350.58 | 1397.1 | 95.39
323.15 K | 1346.41 | 1385.9 | 76.37

CNc1ccccc1 [N-methylaniline]
Details | mass density, [1] [kg/m3] | molar heat capacity at constant pressure, [2] [J/K/mol] | speed of sound, [1] [m/s] | viscosity, [1] [mPa·s]
298.15 K | 982.7 | 207.12 | 1564.5 | 1.94
303.15 K | 978.59 | 210.92 | 1546.1 | 1.73
308.15 K | 974.47 | 214.73 | 1528.3 | 1.55
313.15 K | 970.36 | 218.53 | 1511.5 | 1.4
318.15 K | 966.24 | 222.37 | 1492.8 | 1.27
323.15 K | 962.13 | 225.88 | 1476.2 | 1.16

CCCC[n+]1ccn(C)c1.O=S(=O)([N-]S(=O)(=O)C(F)(F)F)C(F)(F)F + CNc1ccccc1
[3]
Details | mass density [kg/m3] | speed of sound [m/s] | viscosity [mPa·s]
298.15 K | 1436.62 | 1227.9 | 49.24
303.15 K | 1431.8 | 1216.8 | 40
308.15 K | 1426.98 | 1205.8 | 33.02
313.15 K | 1422.16 | 1195 | 27.66
318.15 K | 1417.34 | 1184.2 | 23.47
323.15 K | 1412.52 | 1173.6 | 20.15

CCCCn1cc[n+](C)c1.F[P-](F)(F)(F)(F)F [1-butyl-3-methylimidazolium hexafluorophosphate]
Details | mass density, [1] [kg/m3] | molar heat capacity at constant pressure, [2] [J/K/mol] | speed of sound, [1] [m/s] | viscosity, [1] [mPa·s]
298.15 K | 1367.24 | 407.08 | 1443.7 | 272.86
303.15 K | 1363.08 | 410.01 | 1431.9 | 204.1
308.15 K | 1358.91 | 412.77 | 1420.1 | 155.7
313.15 K | 1354.74 | 415.44 | 1408.5 | 120.9
318.15 K | 1350.58 | 418.26 | 1397.1 | 95.39
323.15 K | 1346.41 | 421.21 | 1385.9 | 76.37
